Source: patent US20230149420A1, “ANTI-INFLAMMATORY IMMUNOENHANCER” (SCENT SCIENCE INTERNATIONAL INC., priority 2020, published 2023)

System: neutrophils in the peripheral blood
Test: number of neutrophils in peripheral blood, Siemens Advia 120 (Examples 4, 5)
Assay type: in vivo, C57/BL6 mice
Details: 200 μl of 1% solution i.p., blood 16 hr later, vs saline
Procedure: About 3-month-old C57/BL6 mice were intraperitoneally injected with 200 μl of saline (control) or 1% solution of respective compounds (dissolved in saline). Blood was collected 16 hr later, and the number of neutrophils in the peripheral blood was measured using Siemens Advia 120.

Molecule	neutrophils in the peripheral blood (number)
CCc1nccnc1CC [2,3-Diethylpyrazine]	increase
CSC1=NCCS1 [2-(Methylthio)-2-thiazoline]	increase
CSc1nc2ccccc2s1 [2-(Methylthio)benzothiazole]	increase
CC(=O)c1cccn1C [2-Acetyl-1-methylpyrrole]	increase
CC(=O)c1ccc[nH]1 [2-Acetylpyrrole]	increase
CCOc1nccs1 [2-Ethoxythiazole]	increase
CCc1cccs1 [2-Ethylthiophene]	increase
CCCCCCc1cccs1 [2-Hexylthiophene]	increase
CC1=NC(CC(C)C)SC1C (centres unmarked) [2-Isobutyl-4,5-dimethyl-3-thiazoline]	increase
CC1CNCCS1 (centres unmarked) [2-Methylthiomorpholine]	increase
O=C1CSc2ccccc2N1 [2H-1,4-benzothiazin-3(4H)one]	increase
CSCCCN=C=S [3-(Methylthio)propyl isothiocyanate]	increase
CC(=O)c1cc(C)sc1C [3-Acetyl-2,5-dimethylthiophene]	increase
CC(=O)c1cccnc1 [3-Acetylpyridine]	increase
Clc1ccsc1 [3-Chlorothiophene]	increase
Cc1ncsc1C [4,5-Dimethylthiazole]	increase
CSC1CSC=N1 (centres unmarked) [4-(Methylthio)-2-thiazoline]	increase
C=CCCCN=C=S [4-Pentenyl Isothiocyanate]	increase
Cc1nc(C(C)(C)C)cs1 [4-tert-Butyl-2-methylthiazole]	increase
CC(=O)c1sc(C)nc1C [5-Acetyl-2,4-dimethylthiazole]	increase
C1CCCNCC1 [Azepane]	increase
c1ccc2sccc2c1 [Benzothiophene]	increase
S=C=NCc1ccccc1 [Benzyl isothiocyanate]	increase
CC(C)N=C=S [Isopropyl isothiocyanate]	increase
C=C(C)CN=C=S [Methallyl isothiocyanate]	increase
O=C1CSC(=O)N1 [Thiazolidine-2,4-dione]	increase

System: basophils in the whole blood cells
Test: ratio of basophils in whole blood cells, Siemens Advia 120 (Example 14)
Assay type: in vivo, C57/BL6 mice
Details: 200 μl of 1% solution i.p., blood 16 hr later, vs saline
Procedure: About 3-month-old C57/BL6 mice were intraperitoneally injected with 200 μl of saline (control) or 1% solution of respective compounds (dissolved in saline). Blood was collected 16 hr later, and the ratio of basophils in the whole blood cells was measured using Siemens Advia 120.

Molecule	ratio of basophils in the whole blood cells
CC1(C)NCCS1 [2,2-Dimethylthiazolidine]	increases
CCc1nccnc1C(C)=O [2-Acetyl-3-ethylpyrazine]	increases
CC(=O)c1nccs1 [2-Acetylthiazole]	increases
Clc1nccs1 [2-Chlorothiazole]	increases
CCc1ccco1 [2-Ethylfuran]	increases
CCc1ccc[nH]1 [2-Ethylpyrrole]	increases
Cc1csc(C(C)C)n1 [2-Isopropyl-4-methylthiazole]	increases
Cc1nccs1 [2-Methylthiazole]	increases
CC(=O)c1cc(C)oc1C [3-Acetyl-2,5-dimethylfuran]	increases
CC(=O)c1cc(C)sc1C [3-Acetyl-2,5-dimethylthiophene]	increases
Clc1ccsc1 [3-Chlorothiophene]	increases
Cc1ccsc1 [3-Methylthiophene]	increases
CC(=O)c1sc(C)nc1C [5-Acetyl-2,4-dimethylthiazole]	increases

System: neutrophils in the whole blood cells
Test: ratio of neutrophils in whole blood cells, Siemens Advia 120 (Examples 12, 13)
Assay type: in vivo, C57/BL6 mice
Details: 200 μl of 1% solution i.p., blood 16 hr later, vs saline
Procedure: About 3-month-old C57/BL6 mice were intraperitoneally injected with 200 μl of saline (control) or 1% solution of respective compounds (dissolved in saline). Blood was collected 16 hr later, and the ratio of neutrophils in the whole blood cells was measured using Siemens Advia 120.

Molecule	ratio of neutrophils in the whole blood cells
2-Methyl-(3 or 5 or 6)-methylthio pyrazine [2-Methyl-(3 or 5 or 6)-methylthio pyrazine (mixture of isomers)]	increases
c1coc(Cn2cccc2)c1 [1-Furfurylpyrrole]	increases
CC1(C)NCCS1 [2,2-Dimethylthiazolidine]	increases
CCc1nccnc1CC [2,3-Diethylpyrazine]	increases
Cc1nc(C)c(C)s1 [2,4,5-Trimethylthiazole]	increases
Cc1c[nH]c(C)c1 [2,4-Dimethylpyrrole]	increases
CSC1=NCCS1 [2-(Methylthio)-2-thiazoline]	increases
CSc1nc2ccccc2s1 [2-(Methylthio)benzothiazole]	increases
CC(=O)c1cccn1C [2-Acetyl-1-methylpyrrole]	increases
CCc1nccnc1C(C)=O [2-Acetyl-3-ethylpyrazine]	increases
CC(=O)c1ccc[nH]1 [2-Acetylpyrrole]	increases
CC(=O)c1nccs1 [2-Acetylthiazole]	increases
Clc1nccs1 [2-Chlorothiazole]	increases
CCOc1nccs1 [2-Ethoxythiazole]	increases
CCc1ccc[nH]1 [2-Ethylpyrrole]	increases
CCCCCCc1cccs1 [2-Hexylthiophene]	increases
CC(C)Cc1nccs1 [2-Isobutylthiazole]	increases
Cc1csc(C(C)C)n1 [2-Isopropyl-4-methylthiazole]	increases

Molecule	ratio of neutrophils in the whole blood cells
Cc1nccs1 [2-Methylthiazole]	increases
CC1CNCCS1 (centres unmarked) [2-Methylthiomorpholine]	increases
Cc1cccs1 [2-Methylthiophene]	increases
CCC(=O)c1cccs1 [2-Propionyl thiophene]	increases
O=C1CSc2ccccc2N1 [2H-1,4-benzothiazin-3(4H)one]	increases
CC(=O)c1cc(C)sc1C [3-Acetyl-2,5-dimethylthiophene]	increases
CC(=O)c1cccnc1 [3-Acetylpyridine]	increases
Clc1ccsc1 [3-Chlorothiophene]	increases
Cc1cc[nH]c1 [3-Methylpyrrole]	increases
Cc1ncsc1C [4,5-Dimethylthiazole]	increases
CSC1CSC=N1 (centres unmarked) [4-(Methylthio)-2-thiazoline]	increases
C=CCCCN=C=S [4-Pentenyl Isothiocyanate]	increases
CC(=O)c1sc(C)nc1C [5-Acetyl-2,4-dimethylthiazole]	increases
C1CCCNCC1 [Azepane]	increases
c1ccc2sccc2c1 [Benzothiophene]	increases
S=C=NCc1ccccc1 [Benzyl isothiocyanate]	increases
C=C(C)CN=C=S [Methallyl isothiocyanate]	increases
c1cscn1 [Thiazole]	increases

System: monocytes in the whole blood cells
Test: ratio of monocytes in whole blood cells, Siemens Advia 120 (Examples 10, 11)
Assay type: in vivo, C57/BL6 mice
Details: 200 μl of 1% solution i.p., blood 16 hr later, vs saline
Procedure: About 3-month-old C57/BL6 mice were intraperitoneally injected with 200 μl of saline (control) or 1% solution of respective compounds (dissolved in saline). Blood was collected 16 hr later, and the ratio of monocytes in the whole blood cells was measured using Siemens Advia 120.
About 3-month-old C57/BL6 mice were intraperitoneally injected with 200 μl of saline (control) or 1% allyl isothiocyanate solution (dissolved in saline). Blood was collected 16 hr later, and the ratio of monocytes in the whole blood cells was measured using Siemens Advia 120.

Molecule	ratio of monocytes in the whole blood cells
2-Methyl-(3 or 5 or 6)-methylthio pyrazine [2-Methyl-(3 or 5 or 6)-methylthio pyrazine (mixture of isomers)]	increases
CC1NCCSC1C (centres unmarked) [2,3-Dimethylthiomorpholine]	increases
CCc1nccnc1C(C)=O [2-Acetyl-3-ethylpyrazine]	increases
CCOc1nccs1 [2-Ethoxythiazole]	increases
Cc1cc2ccccc2[nH]1 [2-Methylindole]	increases
CC(=O)c1cc(C)sc1C [3-Acetyl-2,5-dimethylthiophene]	increases
Clc1ccsc1 [3-Chlorothiophene]	increases
Cc1ncsc1C [4,5-Dimethylthiazole]	increases
CSC1CSC=N1 (centres unmarked) [4-(Methylthio)-2-thiazoline]	increases
C1CCCNCC1 [Azepane]	increases
C1CSCCN1 [Thiomorpholine]	increases
